# In patent US8303979B2, “Dietary modifications to improve fertility” (Nutreco Nederland B.V., priority 2001, dated 2012):
# System: sows
# Assay: Oral L-arginine supplementation of sows during pregnancy
# Format: in vivo, pigs
# Description: The experiment was performed with 197 sows that had already produced at least one litter. Sows in the control group (n=95) received a normal diet during gestation. Sows in the L-arginine group (n=102) received a normal diet from insemination until day 13 of pregnancy, an L-arginine supplemented diet from day 14 until day 31, again the control diet from day 32 until day 104 and again the L-arginine supplemented diet from day 105 until farrowing.
# The L-arginine supplemented diet was the same as the control diet, except for the addition of 10 g L-arginine per kg.
smiles,measurement,setting,value
N=C(N)NCCC[C@H](N)C(=O)O [L-arginine],Sows (litters) with stillborn piglets,"41 sows of the L-arginine group, same percentage as control",47.1%
same,Average number of stillborn piglets in litters with stillborn piglets,not significantly different from control,1.86±0.22
same,Birth weight NBA corrected for LS,"piglets born alive, corrected for litter size",1597 ± 24 g
same,Birth weight NBA,"piglets born alive, not corrected for litter size",1584 ± 27 g
same,Total number born + mummies,"piglets per litter, corrected for parity, L-arginine diet day 14-31 and day 105 until farrowing, p<0.05 vs control",12.74 ± 0.31
same,Total number born (TNB),"piglets per litter, L-arginine diet day 14-31 and day 105 until farrowing, p<0.05 vs control",12.69 ± 0.31
same,Number born alive (NBA),"piglets per litter, L-arginine diet day 14-31 and day 105 until farrowing, p=0.055 vs control",11.77 ± 0.30^+
same,Birth weight TNB corrected for LS,"piglets, total number born, corrected for litter size",1578 ± 23 g
same,Birth weight TNB,"piglets, total number born, not corrected for litter size",1563 ± 27 g
same,Farrowing rate,"sows, diet with 10 g L-arginine per kg added, day 14-31 and day 105 until farrowing, 87/102",85%
same,"Effect on litter size (total number born and number born alive), piglets extra",versus control group,~1 piglet
